Data published in the CheMixHub viscosity set.
± gives the uncertainty stated by the source.

Assay: xn = mol fraction of the nth substance listed

C=CC#N + C1CCCCC1
307.4 K, 101.33 kPa
Conditions | viscosity [mPa·s]
x2 = 0.0861 | 0.66 ± 0.01
x2 = 0.2848 | 0.53 ± 0.01
x2 = 0.5332 | 0.419 ± 0.004
x2 = 0.544 | 0.396 ± 0.004
x2 = 0.7114 | 0.359 ± 0.003
x2 = 0.8989 | 0.318 ± 0.003

CCCCN(CCCC)CCCC + C1CCCCC1
viscosity [mPa·s], 101 kPa
Conditions | 303.15 K | 313.15 K
x1 = 0.0103 | 0.8168 ± 0.0056 | 0.7154 ± 0.0051
x1 = 0.0216 | 0.816 ± 0.0056 | 0.7139 ± 0.0051
x1 = 0.03178 | 0.8153 ± 0.0056 | 0.7132 ± 0.0051
x1 = 0.04023 | 0.8141 ± 0.0056 | 0.7121 ± 0.0051
x1 = 0.05159 | 0.8132 ± 0.0057 | 0.7111 ± 0.0051
x1 = 0.05978 | 0.8121 ± 0.0057 | 0.7102 ± 0.0051
x1 = 0.0709 | 0.8113 ± 0.0057 | 0.709 ± 0.0051
x1 = 0.0807 | 0.81 ± 0.0057 | 0.7078 ± 0.0051
x1 = 0.08607 | 0.8086 ± 0.0057 | 0.7065 ± 0.0051
x2 = 0.1133 | 1.125 ± 0.023 | –
x2 = 0.1972 | 1.125 ± 0.023 | –
x2 = 0.402 | 1.021 ± 0.021 | –
x2 = 0.499 | 0.987 ± 0.02 | –
x2 = 0.5952 | 0.951 ± 0.019 | –
x2 = 0.7042 | 0.911 ± 0.018 | –
x2 = 0.8018 | 0.875 ± 0.018 | –
x2 = 0.9005 | 0.845 ± 0.017 | –

CC(C)(C)Cl + C1CCOC1
101 kPa
Conditions | viscosity [mPa·s]
298.15 K, x2 = 0.0634 | 0.4743 ± 0.0055
298.15 K, x2 = 0.1288 | 0.4733 ± 0.0055
298.15 K, x2 = 0.2423 | 0.4718 ± 0.0054
298.15 K, x2 = 0.3198 | 0.4705 ± 0.0054
298.15 K, x2 = 0.4555 | 0.4684 ± 0.0053
298.15 K, x2 = 0.5341 | 0.4673 ± 0.0053
298.15 K, x2 = 0.6598 | 0.4656 ± 0.0052
298.15 K, x2 = 0.7441 | 0.4647 ± 0.0052
298.15 K, x2 = 0.8407 | 0.4639 ± 0.0052
298.15 K, x2 = 0.8916 | 0.4636 ± 0.0052
298.15 K, x2 = 0.961 | 0.4633 ± 0.0051
313.15 K, x2 = 0.0557 | 0.3913 ± 0.0052
313.15 K, x2 = 0.0959 | 0.3917 ± 0.0051
313.15 K, x2 = 0.1963 | 0.3928 ± 0.0051
313.15 K, x2 = 0.296 | 0.3935 ± 0.0051
313.15 K, x2 = 0.3892 | 0.394 ± 0.0051
313.15 K, x2 = 0.521 | 0.3945 ± 0.005
313.15 K, x2 = 0.5951 | 0.3946 ± 0.005
313.15 K, x2 = 0.6368 | 0.3947 ± 0.005
313.15 K, x2 = 0.8089 | 0.3951 ± 0.0049
313.15 K, x2 = 0.9009 | 0.3959 ± 0.0049
313.15 K, x2 = 0.9526 | 0.3968 ± 0.0049

CC(C)(N)CO + C1CNCCN1
viscosity [mPa·s], 101 kPa
Conditions | x2 = 0.02 | x2 = 0.04 | x2 = 0.06 | x2 = 0.08 | x2 = 0.1 | x2 = 0.12 | x2 = 0.14 | x2 = 0.16 | x2 = 0.18
303.15 K | 95.41 ± 4 | 91.27 ± 3.8 | 86.75 ± 3.6 | 83 ± 3.4 | 79.54 ± 3.3 | 76.81 ± 3.2 | 74.64 ± 3.1 | 71.81 ± 2.9 | 71 ± 2.9
313.15 K | 43.72 ± 1.8 | 41.54 ± 1.7 | 38.97 ± 1.6 | 37.34 ± 1.5 | 36.06 ± 1.5 | 35.06 ± 1.4 | 34.1 ± 1.4 | 33.76 ± 1.4 | 33.69 ± 1.4
323.15 K | 24.41 ± 1 | 23.46 ± 0.96 | 22.58 ± 0.93 | 21.64 ± 0.89 | 20.53 ± 0.84 | 19.63 ± 0.81 | 18.74 ± 0.77 | 17.8 ± 0.73 | 17.07 ± 0.7

[2H]O[2H] + C1COCCO1
viscosity [mPa·s], 101 kPa
Conditions | 303.1 K | 313.1 K | 323.1 K
x1 = 0.1561 | 1.112 ± 0.018 | 0.944 ± 0.016 | 0.817 ± 0.014
x1 = 0.1831 | 1.154 ± 0.018 | 0.972 ± 0.016 | 0.831 ± 0.014
x1 = 0.3467 | 1.317 ± 0.02 | 1.092 ± 0.017 | 0.918 ± 0.015
x1 = 0.522 | 1.585 ± 0.024 | 1.289 ± 0.02 | 1.06 ± 0.017
x1 = 0.5977 | 1.728 ± 0.025 | 1.378 ± 0.021 | 1.128 ± 0.018
x1 = 0.6534 | 1.836 ± 0.027 | 1.447 ± 0.022 | 1.172 ± 0.018
x1 = 0.7431 | 1.968 ± 0.029 | 1.529 ± 0.023 | 1.233 ± 0.019
x1 = 0.8126 | 1.959 ± 0.029 | 1.52 ± 0.023 | 1.213 ± 0.019
x1 = 0.8683 | 1.754 ± 0.026 | 1.367 ± 0.021 | 1.098 ± 0.017
x1 = 0.9108 | 1.528 ± 0.023 | 1.199 ± 0.019 | 0.97 ± 0.016
x1 = 0.9466 | 1.321 ± 0.021 | 1.047 ± 0.017 | 0.853 ± 0.015
x1 = 0.9747 | 1.131 ± 0.018 | 0.905 ± 0.015 | 0.742 ± 0.013

CCCCC(C)CC (configuration not stated) + C1C[C@@H]2[C@H]3CC[C@H](C3)[C@@H]2C1
viscosity [mPa·s], 100 kPa
Conditions | x2 = 0.0994 | x2 = 0.2004 | x2 = 0.2996 | x2 = 0.4001 | x2 = 0.5008 | x2 = 0.5973 | x2 = 0.6998 | x2 = 0.8016 | x2 = 0.8999
293.15 K | 0.577 ± 0.013 | 0.657 ± 0.014 | 0.755 ± 0.016 | 0.882 ± 0.019 | 1.044 ± 0.023 | 1.249 ± 0.027 | 1.521 ± 0.033 | 1.882 ± 0.041 | 2.336 ± 0.051
298.15 K | 0.547 ± 0.012 | 0.62 ± 0.013 | 0.708 ± 0.015 | 0.824 ± 0.018 | 0.971 ± 0.021 | 1.154 ± 0.025 | 1.399 ± 0.031 | 1.722 ± 0.038 | 2.125 ± 0.046
303.15 K | 0.519 ± 0.011 | 0.589 ± 0.013 | 0.667 ± 0.014 | 0.772 ± 0.017 | 0.905 ± 0.02 | 1.065 ± 0.023 | 1.294 ± 0.028 | 1.585 ± 0.035 | 1.945 ± 0.043
308.15 K | 0.495 ± 0.011 | 0.557 ± 0.012 | 0.63 ± 0.014 | 0.726 ± 0.016 | 0.848 ± 0.018 | 1 ± 0.022 | 1.201 ± 0.026 | 1.457 ± 0.032 | 1.788 ± 0.039
313.15 K | 0.472 ± 0.01 | 0.53 ± 0.012 | 0.597 ± 0.013 | 0.685 ± 0.015 | 0.796 ± 0.017 | 0.935 ± 0.02 | 1.118 ± 0.024 | 1.357 ± 0.03 | 1.65 ± 0.036

CCCCN(CCCC)CCCC + C=C(C)C(=O)OC
303.15 K, 101 kPa
Conditions | viscosity [mPa·s]
x2 = 0.21 | 0.9849 ± 0.0085
x2 = 0.3945 | 0.8491 ± 0.0076
x2 = 0.4886 | 0.7874 ± 0.0073
x2 = 0.6041 | 0.7144 ± 0.0068
x2 = 0.7985 | 0.6078 ± 0.0062

COC(C)OC + CC1COC(=O)O1
298.15 K, 101 kPa
Conditions | viscosity [mPa·s]
x2 = 0.1205 | 4.91
x2 = 0.2621 | 6.2
x2 = 0.3779 | 7.53
x2 = 0.4836 | 9.05 ± 4
x2 = 0.7185 | 13.82 ± 4

C=CC#N + CC#N
303.15 K, 101.3 kPa
Conditions | viscosity [mPa·s]
x1 = 0.0965 | 0.3219 ± 0.0031
x1 = 0.2002 | 0.3193 ± 0.0031
x1 = 0.2977 | 0.3185 ± 0.0031
x1 = 0.3966 | 0.3178 ± 0.0031
x1 = 0.4928 | 0.3169 ± 0.003
x1 = 0.5983 | 0.3154 ± 0.003
x1 = 0.6941 | 0.3147 ± 0.003
x1 = 0.7977 | 0.3136 ± 0.003
x1 = 0.8997 | 0.3124 ± 0.003

CCC(C)(C)O + CC#N
298.15 K, 101 kPa
Conditions | viscosity [mPa·s]
x1 = 0.1002 | 0.387 ± 0.059
x1 = 0.1989 | 0.45 ± 0.066
x1 = 0.2988 | 0.543 ± 0.077
x1 = 0.3988 | 0.667 ± 0.09
x1 = 0.4964 | 0.832 ± 0.11
x1 = 0.6004 | 1.069 ± 0.14
x1 = 0.6969 | 1.375 ± 0.17
x1 = 0.7994 | 1.832 ± 0.22
x1 = 0.8983 | 2.493 ± 0.29
x1 = 0.958 | 3.032 ± 0.35

CN(C)c1ccccc1 + CC(=O)CC(C)C
viscosity [mPa·s], 101 kPa
Conditions | 303.15 K | 308.15 K
x1 = 0.0745 | 0.632 ± 0.025 | 0.557 ± 0.023
x1 = 0.1256 | 0.711 ± 0.028 | 0.628 ± 0.025
x1 = 0.1856 | 0.8 ± 0.031 | 0.711 ± 0.028
x1 = 0.2652 | 0.906 ± 0.034 | 0.813 ± 0.031
x1 = 0.3202 | 0.971 ± 0.036 | 0.875 ± 0.033
x1 = 0.4012 | 1.052 ± 0.039 | 0.953 ± 0.036
x1 = 0.4852 | 1.108 ± 0.041 | 1.013 ± 0.038
x1 = 0.5612 | 1.143 ± 0.042 | 1.049 ± 0.039
x1 = 0.6504 | 1.165 ± 0.042 | 1.072 ± 0.039
x1 = 0.7214 | 1.167 ± 0.042 | 1.079 ± 0.04
x1 = 0.7958 | 1.168 ± 0.042 | 1.079 ± 0.04
x1 = 0.8625 | 1.169 ± 0.042 | 1.081 ± 0.04
x1 = 0.9125 | 1.17 ± 0.043 | 1.086 ± 0.04
